Numbers after ± are expanded uncertainties.
Conditions: 298.15 K; 101.33 kPa; Liquid; Vibrating tube method

| SMILES | mass density |
| --- | --- |
| CCCCCC[N+]1(C)CCCC1.O=S(=O)([N-]S(=O)(=O)C(F)(F)F)C(F)(F)F | 1336 ± 1.6 kg/m3 |
| CCCC[N+]1(C)CCCC1.O=S(=O)([N-]S(=O)(=O)C(F)(F)F)C(F)(F)F | 1394.3 ± 0.6 kg/m3 |
| CCC[N+](C)(C)CC.O=S(=O)([N-]S(=O)(=O)C(F)(F)F)C(F)(F)F | 1403.5 ± 0.6 kg/m3 |
| CCCCCC[n+]1ccn(C)c1.O=S(=O)([N-]S(=O)(=O)C(F)(F)F)C(F)(F)F | 1371.6 ± 0.7 kg/m3 |

Reference: the NIST ThermoML archive (doi:10.1016/j.fluid.2011.12.008)
